Assay results taken from patent publication US20250177349A1, “ARYL ALKYNAMIDE DERIVATIVES” (Astellas Pharma, Inc., priority 2022, published 2025).

The compounds below were run on drug-induced Sjogren's syndrome-like salivary dysfunction (assay: Test on drug-induced Sjogren's syndrome-like salivary dysfunction in mice). Settings: female C57BL/6J mice, DMXAA 20 mg/kg s.c. four times weekly, test compound orally once a day for 8 days; FIGS. 1-3.
Type: in vivo
Procedure: Female C57BL/6J mice (8-10-weeks-old) were injected subcutaneously with 20 mg/kg of DMXAA or its vehicle, 5% NaHCO3, four times at weekly intervals. From the day after the last DMXAA challenge, mice were orally administered the test compound or its vehicle once a day for 8 days. On the following day, saliva was collected from mice using a cotton swab under awake conditions, and saliva weight during 15 min was measured and evaluated as an indicator of salivary gland function.

Row | Compound | saliva production (saliva weight during 15 min)
1 | NC(=O)C1CCN(C(=O)C#Cc2ccc(-c3ccccc3)c(C(F)(F)F)c2)CC1 [Example 34, 1-{3-[2-(trifluoromethyl)[1,1′-biphenyl]-4-yl]prop-2-ynoyl}piperidine-4-carboxamide] | significantly improved saliva production
2 | N=S1(=O)CCN(C(=O)C#Cc2ccc(-c3ccccc3)c(C(F)(F)F)c2)CC1 [Example 99, 1-imino-4-{3-[2-(trifluoromethyl)[1,1′-biphenyl]-4-yl]prop-2-ynoyl}-1λ^6-thiomorpholin-1-one] | significantly improved saliva production
3 | O=C(C#Cc1ccc(-c2ccccc2)c(C(F)(F)F)c1)N1C[C@@H](O)[C@@H](O)C1 [Example 33, 1-[(3R,4S)-3,4-dihydroxypyrrolidin-1-yl]-3-[2-(trifluoromethyl)[1,1′-biphenyl]-4-yl]prop-2-yn-1-one] | significantly improved saliva production
